From patent US20210024542A1 (Torcept Therapeutics, Inc., priority 2018, published 2021)

How the values were obtained:
OVCAR3 = assay: OncoPanel cell proliferation assay, OVCAR3; conditions: for Cell Count Activity Area: OVCAR3, scale 0-10
Protocol: (§7) Cells were seeded into 384-well plates and incubated in a humidified atmosphere of 5% CO2 at 37° C. Compounds were added the day following cell seeding. At the same time, a time zero untreated cell plate was generated. After a 3-day incubation period, cells were fixed and stained to allow fluorescence imaging of nuclei. Compounds (1 mM stock solutions) were serially diluted in half-log steps from the highest test concentration (1 micromol), and assayed over 10 concentrations with a maximum assay concentration of 0.1% DMSO. Automated fluorescence microscopy was carried out using a Molecular Devices ImageXpress Micro XL high-content imager, and images were collected with a 4× objective. 16-bit TIFF images were acquired and analyzed with MetaXpress 5.1.0.41 software.

CRO-AP2 = assay: OncoPanel cell proliferation assay, CRO-AP2; type: cell-based, human; conditions: CRO-AP2, scale 0-10
Protocol: (§1) Cells were grown in RPMI 1640, 10% FBS, 2 mM L-alanyl-L-glutamine, 1 mM Na pyruvate, or a special medium. Cells were seeded into 384-well plates and incubated in a humidified atmosphere of 5% CO2 at 37° C. Compounds were added the day following cell seeding. At the same time, a time zero untreated cell plate was generated. After a 3-day incubation period, cells were fixed and stained to allow fluorescence imaging of nuclei. Compounds (1 mM stock solutions) were serially diluted in half-log steps from the highest test concentration ([…]), and assayed over 10 concentrations with a maximum assay concentration of 0.1% DMSO. Automated fluorescence microscopy was carried out using a Molecular Devices ImageXpress Micro XL high-content imager, and images were collected with a 4× objective. 16-bit TIFF images were acquired and analyzed with MetaXpress 5.1.0.41 software.
(§2) Cell proliferation was measured by the fluorescence intensity of an incorporated nuclear dye. The output is referred to as the relative cell count, where the measured nuclear intensity is transformed to percent of control (POC) using the following formula: […]
(§3) Cellular response parameters were calculated using nonlinear regression to a sigmoidal single-site dose response model:
(§4) Where y is a response measured at concentration x, A and B are the lower and upper limits of the response, C is the concentration at the response midpoint (EC50), and D is the Hill Slope (Ref. 1).
(§5) EC50 is the test compound concentration at the curve inflection point or half the effective response (parameter C of the fitted curve solution). GI50 is the concentration needed to reduce the observed growth by half (midway between the curve maximum and the time zero value). “Cell Count Activity Area” is an estimate of the integrated area above the curve (Barretina, et al. The Cancer Cell Line Encyclopedia enables predictive modelling of anticancer drug sensitivity. Nature 483: 603-607). […] In rare instances, values <0 or >10 may be observed. […] Curve-fitting, calculations, and report generation was performed using a custom data reduction engine and MathIQ based software (AIM).

PC-3 = assay: OncoPanel cell proliferation assay, PC-3; conditions: for Cell Count Activity Area: PC-3, scale 0-10
Protocol: as §7

SHP-77 = assay: OncoPanel cell proliferation assay, SHP-77; conditions: for Cell Count Activity Area: SHP-77, scale 0-10
Protocol: as §7

CAMA-1 = assay: OncoPanel cell proliferation assay, CAMA-1; conditions: for Cell Count Activity Area: CAMA-1, scale 0-10
Protocol: as §7

SK-UT-1 = assay: OncoPanel cell proliferation assay, SK-UT-1; conditions: for Cell Count Activity Area: SK-UT-1, scale 0-10
Protocol: as §7

A388 = assay: OncoPanel cell proliferation assay, A388; type: cell-based, human
Protocol: as §1, with “Cells” for “Cells were grown in RPMI 1640, 10% FBS, 2 mM L-alanyl-L-glutamine, 1 mM Na pyruvate, or a special medium. Cells”
as §2, §3, §4
(§6) GI50 is the concentration needed to reduce the observed growth by half (midway between the curve maximum and the time zero value). […] In rare instances, values <0 or >10 may be observed. […] Curve-fitting, calculations, and report generation was performed using a custom data reduction engine and MathIQ based software (AIM).

SNU-5 = assay: OncoPanel cell proliferation assay, SNU-5; type: cell-based, human
Protocol: as §1, with “Cells” for “Cells were grown in RPMI 1640, 10% FBS, 2 mM L-alanyl-L-glutamine, 1 mM Na pyruvate, or a special medium. Cells”
as §2, §3, §4, §6

NCI-H510A = assay: OncoPanel cell proliferation assay, NCI-H510A; type: cell-based, human; conditions: for Cell Count Activity Area: scale 0-10
Protocol: as §1, §2, §3, §4, §5

CEM-C1 = assay: OncoPanel cell proliferation assay, CEM-C1; type: cell-based, human; conditions: for Cell Count Activity Area: CEM-C1, scale 0-10; for IC50: Homo sapiens, 72 h, CEM-C1, 3-day incubation, read-out: Cell Count IC50
Protocol: as §1, §2, §3, §4, §5

AGS = assay: OncoPanel cell proliferation assay, AGS; type: cell-based, human; conditions: scale 0-10
Protocol: as §1, §2, §3, §4, §5

SK-N-AS = assay: OncoPanel cell proliferation assay, SK-N-AS; type: cell-based, human; conditions: for Cell Count Activity Area: scale 0-10
Protocol: as §1, §2, §3, §4, §5

[1] = Homo sapiens, 72 h, 3-day incubation, read-out: Cell Count EC50
[2] = Homo sapiens, 72 h, 3-day incubation, read-out: Cell Count IC50

## CO[C@H]1C[C@@H]2CC[C@@H](C)[C@@](O)(O2)C(=O)C(=O)N2CCCC[C@H]2C(=O)O[C@H]([C@H](C)C[C@@H]2CC[C@@H](O)[C@H](OC)C2)CC(=O)[C@H](C)/C=C(\C)[C@@H](O)[C@@H](OC)C(=O)[C@H](C)C[C@H](C)/C=C/C=C/C=C/1C [Rapamycin, reference compound]
OVCAR3; Homo sapiens, OVCAR-3, 72 h, read-out: Cell Count IC50
  IC50: > 1000 nM
OVCAR3
  Cell Count Activity Area: 2.08
CRO-AP2
  Cell Count Activity Area: 6.22
PC-3; Homo sapiens, PC-3, 72 h, read-out: Cell Count EC50
  EC50: 0.23 nM
PC-3; Homo sapiens, PC-3, 72 h, read-out: Cell Count IC50
  IC50: > 1000 nM
PC-3
  Cell Count Activity Area: 3.57
SHP-77; Homo sapiens, SHP77, 72 h, read-out: Cell Count EC50
  EC50: > 1000 nM
SHP-77; Homo sapiens, SHP77, 72 h, read-out: Cell Count GI50
  GI50: > 1000 nM
SHP-77; Homo sapiens, SHP77, 72 h, read-out: Cell Count IC50
  IC50: > 1000 nM
SHP-77
  Cell Count Activity Area: 1.13
CAMA-1
  Cell Count Activity Area: 4.07
SK-UT-1; Homo sapiens, SK-UT-1, 72 h, read-out: Cell Count EC50
  EC50: 0.2 nM
SK-UT-1; Homo sapiens, SK-UT-1, 72 h, read-out: Cell Count GI50
  GI50: > 1000 nM
SK-UT-1; Homo sapiens, SK-UT-1, 72 h, read-out: Cell Count IC50
  IC50: > 1000 nM
SK-UT-1
  Cell Count Activity Area: 3.23
A388; Homo sapiens, 72 h, A388, 3-day incubation, read-out: Cell Count EC50
  EC50: > 1000 nM
A388; Homo sapiens, 72 h, A388, 3-day incubation, read-out: Cell Count GI50
  GI50: > 1000 nM
A388; Homo sapiens, 72 h, A388, 3-day incubation, read-out: Cell Count IC50
  IC50: > 1000 nM
SNU-5; Homo sapiens, 72 h, SNU-5, 3-day incubation, read-out: Cell Count GI50
  GI50: 24 nM
SNU-5; Homo sapiens, 72 h, SNU-5, 3-day incubation, read-out: Cell Count IC50
  IC50: > 1000 nM
NCI-H510A; [1]
  EC50: > 1000 nM
NCI-H510A; Homo sapiens, 72 h, 3-day incubation, read-out: Cell Count GI50
  GI50: > 1000 nM
NCI-H510A; [2]
  IC50: > 1000 nM
NCI-H510A
  Cell Count Activity Area: 1.63
CEM-C1
  Cell Count Activity Area: 3.61
  IC50: > 1000 nM
AGS
  Cell Count Activity Area: 5.67
SK-N-AS; [2]
  IC50: > 1000 nM
SK-N-AS
  Cell Count Activity Area: 3.58

## CN[C@@H]1C[C@H]2O[C@@](C)([C@@H]1OC)n1c3ccccc3c3c4c(c5c6ccccc6n2c5c31)C(=O)NC4 [Staurosporine, reference compound]
OVCAR3
  Cell Count Activity Area: 3.41
CRO-AP2
  Cell Count Activity Area: 3.99
PC-3
  Cell Count Activity Area: 4.67
SHP-77
  Cell Count Activity Area: 3.16
CAMA-1
  Cell Count Activity Area: 2.99
CAMA-1; Homo sapiens, CAMA-1, 72 h, read-out: Cell Count GI50
  GI50: 12 nM
CAMA-1; Homo sapiens, CAMA-1, 72 h, read-out: Cell Count IC50
  IC50: 99 nM
SK-UT-1
  Cell Count Activity Area: 3.46
A388; A388, scale 0-10
  Cell Count Activity Area: 4.99
SNU-5; SNU-5, scale 0-10
  Cell Count Activity Area: 2.58
NCI-H510A
  Cell Count Activity Area: 1.68
CEM-C1
  Cell Count Activity Area: 4.28
  IC50: 9.2 nM
AGS
  Cell Count Activity Area: 6.19
SK-N-AS; [1]
  EC50: 1.7 nM
SK-N-AS
  Cell Count Activity Area: 4.83
